Assay results: US12005050B2, “Methods for preventing or treating H. pylori infection” (TENNOR THERAPEUTICS (SUZHOU) LIMITED, priority 2022, dated 2024)

Tests used:
[1] = Safety tolerance assessment, adverse events (Example 1); format: in vivo, human
Method: 40 asymptomatic healthy patients that are positive for Helicobacter pylori infection were admitted to the trial. The 40 patients were randomly allocated to four groups at a ratio of 1:1:1:1.
Different therapies were administered to the patients of each group according to the schedule below: • Group A: • Compound I capsule 200 mg/time (2 capsules, 100 mg/capsule), twice per day (BID); rabeprazole sodium enteric-coated tablet 20 mg/time (1 tablet, 20 mg/tablet), twice per day (BID) • Group B: • Compound I capsule 400 mg/time (4 capsules, 100 mg/capsule), twice per day (BID); rabeprazole sodium enteric-coated tablet 20 mg/time (1 tablet, 20 mg/tablet), twice per day (BID) • Group C: • Compound I capsule 600 mg/time (6 capsules, 100 mg/capsule), twice per day (BID); rabeprazole sodium enteric-coated tablet 20 mg/time (1 tablet, 20 mg/tablet), twice per day (BID) • Group D: • Compound I capsule 400 mg/time (4 capsules, 100 mg/capsule), twice per day (BID); rabeprazole sodium enteric-coated tablet 20 mg/time (1 tablet, 20 mg/tablet), twice per day (BID); amoxicillin capsule 1 g/time (4 capsules, 0.25 g/capsule), twice per day (BID)
All patients were admitted to the clinical research center 1 day before dosing (D-1 Day), randomly allocated to respective groups and completed examinations for safety and baseline indicators. From day 1 to day 14, respective therapies/drugs were orally administered to the patients within 30 minutes after breakfast and dinner. On day 15, the last dose was administered orally to the patients within 30 minutes after breakfast. During the trial, each patient was dosed for 29 times in total. All patients left the hospital after completing a safety tolerance assessment on day 17 and returned to the clinical research center for urea breath test (UBT) follow-up examination between days 44 and 50 to evaluate the effect of Helicobacter pylori eradication.
The safety tolerance assessment incudes assessment of adverse events (AE), serious adverse events (SAE), drug-related AEs, and AEs leading to withdrawal.
The number and incidence of all adverse events were summarized according to the respective trial group, systemic organ classification and preferred terminology.
By trial group, according to the CTCA 5.0 rating, the list describes the incidence of adverse events in each trial group (occurred in each trial group alone, in 2 groups or 3 groups).
By trial group, the mean, standard deviation, median, minimum and maximum values of vital signs (blood pressure, breathing, pulse and body temperature) and laboratory indicators before and after drug administration were calculated, and when necessary, paired t-test or non-parametric test were used for before-and-after comparison.
SAE and Suspected Unintended Serious Adverse Reactions (SUSAR) were listed separately.

[2] = Solubility of drug substance; format: physicochemical
[3] = Group A: Compound I 200 mg BID + rabeprazole sodium 20 mg BID
[4] = Group A: Compound I 200 mg BID + rabeprazole sodium 20 mg BID, N = 10
[5] = Group B: Compound I 400 mg BID + rabeprazole sodium 20 mg BID
[6] = Group B: Compound I 400 mg BID + rabeprazole sodium 20 mg BID, N = 10
[7] = Group C: Compound I 600 mg BID + rabeprazole sodium 20 mg BID
[8] = Group C: Compound I 600 mg BID + rabeprazole sodium 20 mg BID, N = 10
[9] = Group D: Compound I 400 mg BID + rabeprazole sodium 20 mg BID + amoxicillin 1 g BID
[10] = Group D: Compound I 400 mg BID + rabeprazole sodium 20 mg BID + amoxicillin 1 g BID, N = 10

SMILES: CO[C@H]1/C=C/O[C@@]2(C)Oc3c(C)c(O)c4c(c3C2=O)C2=NC3(CCN(CCn5c([N+](=O)[O-])cnc5C)CC3)NC2=C(NC(=O)/C(C)=C\C=C\[C@H](C)[C@H](O)[C@@H](C)[C@@H](O)[C@@H](C)[C@H](OC(C)=O)[C@@H]1C)C4=O [Compound I, 4-Deoxy-3,4-[2-spiro-[1-[2-(2-methyl-5-nitro-imidazol-1-yl)ethyl]-piperidin-4-yl]]-(1H)-imidazo-(2,5-dihydro)rifamycin]
- Elevated serum creatinine, number of cases [1, 3]: 4 cases
- Incidence of elevated serum creatinine (common AE associated with the combination therapy) [1, 3]: 30%
- Incidence of hyperglycemia (common AE associated with the combination therapy) [1, 3]: 20%
- Drug related TEAE (patients/episodes) [1, 4]: (6/18)
- Incidence of AEs: Drug related TEAE [1, 4]: 60%
- Incidence of AEs: TEAE [1, 4]: 60%
- TEAE (patients/episodes) [1, 4]: (6/18)
- Elevated serum creatinine, number of cases [1, 5]: 1 case
- Grade 3 AEs [1, 5]: 3
- Incidence of elevated hemobilirubin (common AE associated with the combination therapy) [1, 5]: Group B: elevated hemobilirubin (20%), hyperglycemia (20%);
- Incidence of hyperglycemia (common AE associated with the combination therapy) [1, 5]: Group B: elevated hemobilirubin (20%), hyperglycemia (20%);
- Drug related TEAE (patients/episodes) [1, 6]: (7/9)
- Incidence of AEs: Drug related TEAE [1, 6]: 70%
- Incidence of AEs: TEAE [1, 6]: 80%
- TEAE (patients/episodes) [1, 6]: (8/12)
- Common adverse events with incidence of ≥15% associated with the combination therapy [1, 7]: Group C: absent;
- Elevated serum creatinine, number of cases [1, 7]: 2 cases
- Drug related TEAE (patients/episodes) [1, 8]: (5/8)
- Incidence of AEs: Drug related TEAE [1, 8]: 50%
- Incidence of AEs: TEAE [1, 8]: 50%
- TEAE (patients/episodes) [1, 8]: (5/8)
- Elevated serum creatinine, number of cases [1, 9]: 2 cases
- Incidence of elevated alanine aminotransferase (common AE associated with the combination therapy) [1, 9]: Group D: elevated alanine aminotransferase (20%), elevated aspartic acid aminotransferase (20%), hypertriglyceridemia (20%), hyperuricemia (20%), rash (20%), papules (20%).
- Incidence of elevated aspartic acid aminotransferase (common AE associated with the combination therapy) [1, 9]: Group D: elevated alanine aminotransferase (20%), elevated aspartic acid aminotransferase (20%), hypertriglyceridemia (20%), hyperuricemia (20%), rash (20%), papules (20%).
- Incidence of hypertriglyceridemia (common AE associated with the combination therapy) [1, 9]: Group D: elevated alanine aminotransferase (20%), elevated aspartic acid aminotransferase (20%), hypertriglyceridemia (20%), hyperuricemia (20%), rash (20%), papules (20%).
- Incidence of hyperuricemia (common AE associated with the combination therapy) [1, 9]: Group D: elevated alanine aminotransferase (20%), elevated aspartic acid aminotransferase (20%), hypertriglyceridemia (20%), hyperuricemia (20%), rash (20%), papules (20%).
- Incidence of papules (common AE associated with the combination therapy) [1, 9]: Group D: elevated alanine aminotransferase (20%), elevated aspartic acid aminotransferase (20%), hypertriglyceridemia (20%), hyperuricemia (20%), rash (20%), papules (20%).
- Incidence of rash (common AE associated with the combination therapy) [1, 9]: Group D: elevated alanine aminotransferase (20%), elevated aspartic acid aminotransferase (20%), hypertriglyceridemia (20%), hyperuricemia (20%), rash (20%), papules (20%).
- Drug related TEAE (patients/episodes) [1, 10]: (7/17)
- Incidence of AEs: Drug related TEAE [1, 10]: 70%
- Incidence of AEs: TEAE [1, 10]: 80%
- TEAE (patients/episodes) [1, 10]: (8/19)
- Decrease in renal creatinine clearance, incidence rate ([1]; Total, Groups A-D): 7.5%
- Drug-related AEs of grade 1 ([1]; Total, Groups A-D): 45
- Drug-related AEs of grade 2 ([1]; Total, Groups A-D): 6 cases
- Drug-related skin abnormalities (rash, papules, itching), number of cases ([1]; Total, Groups A-D): 8 cases
- Elevated serum creatinine, incidence rate ([1]; Total, Groups A-D): 15%
- Elevated serum creatinine, number of cases ([1]; Total, Groups A-D): 9 cases
- Grade 1 adverse events (CTC AE 5.0), number of cases ([1]; Total, Groups A-D): 46 cases
- Grade 2 adverse events (CTC AE 5.0), number of cases ([1]; Total, Groups A-D): 10 cases
- Hyperglycemia (unexpected adverse reaction), incidence ([1]; Total, Groups A-D): 12.5%
- Skin abnormalities, number of cases ([1]; Total, Groups A-D): 10 cases
- Unexpected adverse reactions, incidence ([1]; Total, Groups A-D): 15.0%
- Drug related TEAE (patients/episodes) ([1]; Total, Groups A-D, N = 40): (25/52)
- Incidence of AEs: Drug related TEAE ([1]; Total, Groups A-D, N = 40): 62.5%
- Incidence of AEs: TEAE ([1]; Total, Groups A-D, N = 40): 67.5%
- TEAE (patients/episodes) ([1]; Total, Groups A-D, N = 40): (27/57)
- Hyperglycemia (unexpected adverse reaction), number of cases ([1]; Total, Groups A-D, grade 1): 6 cases
- Unexpected adverse reactions, number of cases ([1]; Total, Groups A-D, grade 1): 7 cases
- Elevated transaminases, number of cases ([1]; Total, Groups A-D, severity all grade 1): 7 cases
- Safety and tolerability of the combination therapy ([1]; administered continuously for 14 days in asymptomatic healthy people with positive Helicobacter pylori infection): good safety and tolerability characteristics
- Serious adverse events (SAE) ([1]; entire trial, Groups A-D): no SAE
- Solubility of drug substance [2]: low solubility
